Measured values reported in article PMC10051477, “5,8-Dimethyl-9H-carbazole Derivatives Blocking hTopo I Activity and Actin Dynamics” (Pharmaceuticals, 2023).

Assays:
[1] = target: T1, labeled rabbit muscle actin (Oryctolagus cuniculus, UniProt P68135); experiment: In vitro actin polymerization assay; type: biochemical; details: 5 µM, 1 h, room temperature; vehicle plateau about 25,000 RFU
T1 construct: fluorescent label (chemical); purchased Abcam; host or cells: rabbit muscle
Text: With the aim to confirm the immunofluorescence results and substantiate whether compounds 3 and 4 could inhibit the actin polymerization mechanism and/or boost the F-actin depolymerization, we employed a fluorescent-labeled purified rabbit actin. LA and cytochalasin B (CB) were used as positive controls for both the polymerization inhibition and F-actin subunits dissociation, or only the polymerization inhibition, respectively. In the negative control reaction (only vehicle), actin monomers undergo a normal polymerization, as visible in Figure 5, panel A. The reaction curve rises in approximately 5 min to a value of about 25,000 RFU (plateau) which remains almost unvaried until the end of the experiment. Contrariwise, the two reference molecules, i.e., LA and CB, used at the concentration of 5 µM, braked the actin polymerization, mostly LA rather than CB, under the adopted experimental conditions, and the LA curve dropped until a value of about 8000 RFU at the reaction end.
(§1) An Actin Polymerization/Depolymerization Assay Kit, purchased from Abcam, was employed to assess the ability of compounds 3 and 4 to interfere with the actin polymerization and depolymerization processes. To perform the essays, the manufacturer’s instructions were followed with some modifications. In particular, polymerization assay was carried out incubating in a white 96-well plate the reconstituted actin with supplemented Buffer G, compounds 3 and 4 and then Buffer P was added in order to induce actin polymerization. For the Actin Depolymerization Assay, the actin polymerization was first induced, incubating supplemented Buffers P and G at room temperature for one hour. Then, compounds 3 and 4 were added at a concentration of 5 μM. Latrunculin A (LA) and Cytochalasin B (CB) were utilized as positive control at a concentration of 5 μM. For both the assays, the assemblage of the actin filaments was defined by measuring the fluorescence (Ex/Em: 365/410 nm) in kinetic mode for 1 h at room temperature in a microplate reader.

[2] = target: T2, F-actin (labeled rabbit muscle actin) (Oryctolagus cuniculus, UniProt P68135); experiment: In vitro F-actin depolymerization assay; type: biochemical; details: 5 µM added after 1 h polymerization
T2 construct: fluorescent label (chemical); purchased Abcam; host or cells: rabbit muscle
Protocol: Moreover, we performed the F-actin depolymerization assay to verify whether compounds 3 and 4 could induce the actin depolymerization as well as the LA does (Figure 5, panel B). For this purpose, we started the actin polymerization for one hour under the same experimental conditions used previously. Then, we added the compounds or the reference molecules at the concentration of 5 µM and monitored the reactions for an additional hour. […] The addition of CB was not able to produce the same effect of LA. […] Contrarily, both the compounds were able to induce an important depolymerizing effect on the F-actin, most evident in the first 7 min after the exposure. Particularly, compounds 3 and 4 produced final values of approximately 14,000 and 12,000 RFU, respectively. […] This combined effect leads to a disorganization of the intracellular actin network.
as §1

[3] = test system: MDA-MB-231 cells; experiment: MTT assay, MDA-MB-231 cell viability; type: cell-based; details: Homo sapiens, 72 h, mean ± standard deviation
Protocol: (§2) The inhibition of cancer cell growth exerted by the five considered compounds (1–5) has been evaluated in vitro against two models of breast cancer, namely the estrogen receptor positive (ER+) MCF-7 and the triple negative MDA-MB-231 human breast cancer cells (lacking ER, PR, and HER-2/Neu amplification), together with the normal counterpart, namely the non-malignant breast epithelial cells MCF-10A. […] Moreover, no effects were recorded against the MCF-7 cells, at least until the concentration of 100 μM. […] Thus, the two lead compounds were chosen for subsequent studies aiming at individuating the molecular mechanisms underlying the observed anticancer activity.
(§3) MTT assays (Sigma Aldrich (St.Louis, MO, USA)) were employed to evaluate the in vitro anticancer activities of all the studied compounds, as previously described. The compounds were tested at different concentrations (0.1-1-10-25-50-100 μM) for 72 h. The IC50 values were calculated from the percent (%) of control using GraphPad Prism 9 (GraphPad Software, La Jolla, CA, USA).

[4] = test system: MCF-10A cells; experiment: MTT assay, MCF-10A normal cell viability; type: cell-based, human; details: Homo sapiens, MCF-10A, 72 h, non-malignant breast epithelial cells, mean ± standard deviation
Protocol: as §2, §3

[5] = test system: MCF-7 cells; experiment: MTT assay, MCF-7 cell viability; type: cell-based; details: Homo sapiens, MCF7, 72 h, mean ± standard deviation
Protocol: as §3

[6] = test system: actin system in MDA-MB-231 cells; experiment: Actin immunofluorescence in MDA-MB-231 cells; type: cell-based, human; details: MDA-MB-231, 24 h; compounds at their IC50 values, LA 0.1 µM
Protocol: In order to determine whether the lead compounds 3 and 4 may effectively regulate the actin system, we employed both the immunofluorescence and in vitro direct enzymatic assays. […] As negative and positive controls, we used the only vehicle (DMSO) and latrunculin A (LA) at a concentration of 0.1 µM, respectively. After processing, the cells were observed under a fluorescent microscope, (see experimental section for the details). […] Moreover, the latter looked brighter and stocked in the cytoplasm in dot-like structures or thicker fibers. Again, the MDA-MB-231 cells, under exposure to compounds 3 and 4, lost their shape (Figure 4, compounds 3 and 4, panels B), as we observed under LA treatment, and with a very similar arrangement of the actin network.
The cells were plated and further processed, as previously indicated. Specifically, the rabbit anti-β-Actin (Santa Cruz Biotechnology, Dallas, TX, USA), diluted 1:100 in bovine serum albumin (BSA) 2%, was used as primary antibody and incubated overnight at 4 °C. The secondary antibody, Alexa Fluor® 488 conjugate goat-anti-rabbit, was diluted 1:500 and incubated for 2 h at 37 °C. DAPI (4′,6-diamidino-2-phenylindole, Sigma Aldrich, Milan, Italy) 0.2 μg/mL was used for nuclei staining. A fluorescence microscope (Leica DM 6000) was utilized for fluorescence detection (40× magnification). LAS-X software allowed acquiring and processing all the fluorescence images, which are representative of three separate experiments.

SMILES	Actin polymerization, final fluorescence value of reaction curve [1]	F-actin depolymerizing effect [2]	IC50 [3] [µM]	IC50 [4] [µM]	IC50 [5] [µM]	F-actin depolymerization, final fluorescence value of reaction curve ([2]; monitored 1 h, vehicle 20,000 RFU)	Effect on actin organization (immunofluorescence) [6]
C=C1[C@@H](C)[C@H]2[C@H](Cc3ccccc3)NC(=O)[C@]23OC(=O)/C=C/[C@H](O)CCC[C@@H](C)C/C=C/[C@H]3[C@@H]1O [CB, Cytochalasin B, reference compound]	approximately 13,000 RFU	does not induce the F-actin depolymerization	–	–	–	–	–
Cc1ccc(C)c2c1c1cc(Br)ccc1n2C(=O)OC(C)(C)C [Compound 1]	–	–	43.5 ± 1.21	> 100	> 100	–	–
COc1ccc2c(c1)c1c(C)ccc(C)c1n2C(=O)OC(C)(C)C [Compound 2]	–	–	8.19 ± 0.26	89.16 ± 0.47	> 100	–	–
Cc1ccc(C)c2c1[nH]c1ccc(O)cc12 [Compound 5, 5,8-Dimethyl-9H-carbazol-3-ol]	–	–	6.59 ± 0.68	> 100	> 100	–	–
Cc1c2ccncc2c(C)c2c1[nH]c1ccccc12 [Ellipticine, reference compound]	–	–	1.92 ± 0.38	1.12 ± 0.51	–	–	–
C/C1=C/C(=O)O[C@@H]2C[C@@H](CC[C@H](C)/C=C\C=C\CC1)O[C@@](O)([C@@H]1CSC(=O)N1)C2 [LA, Latrunculin A, reference compound]	about 8000 RFU	–	–	–	–	about 8000 RFU	the cells underwent an important shape change
